Holding throughout (type): cell-based
The target of one assay is T1, human TLR9 (Homo sapiens, UniProt Q9NR96).
T1 construct: host or cells: HEK-Blue cells (HEK293-derived reporter line)
T1 sequence (Q9NR96 26-1032): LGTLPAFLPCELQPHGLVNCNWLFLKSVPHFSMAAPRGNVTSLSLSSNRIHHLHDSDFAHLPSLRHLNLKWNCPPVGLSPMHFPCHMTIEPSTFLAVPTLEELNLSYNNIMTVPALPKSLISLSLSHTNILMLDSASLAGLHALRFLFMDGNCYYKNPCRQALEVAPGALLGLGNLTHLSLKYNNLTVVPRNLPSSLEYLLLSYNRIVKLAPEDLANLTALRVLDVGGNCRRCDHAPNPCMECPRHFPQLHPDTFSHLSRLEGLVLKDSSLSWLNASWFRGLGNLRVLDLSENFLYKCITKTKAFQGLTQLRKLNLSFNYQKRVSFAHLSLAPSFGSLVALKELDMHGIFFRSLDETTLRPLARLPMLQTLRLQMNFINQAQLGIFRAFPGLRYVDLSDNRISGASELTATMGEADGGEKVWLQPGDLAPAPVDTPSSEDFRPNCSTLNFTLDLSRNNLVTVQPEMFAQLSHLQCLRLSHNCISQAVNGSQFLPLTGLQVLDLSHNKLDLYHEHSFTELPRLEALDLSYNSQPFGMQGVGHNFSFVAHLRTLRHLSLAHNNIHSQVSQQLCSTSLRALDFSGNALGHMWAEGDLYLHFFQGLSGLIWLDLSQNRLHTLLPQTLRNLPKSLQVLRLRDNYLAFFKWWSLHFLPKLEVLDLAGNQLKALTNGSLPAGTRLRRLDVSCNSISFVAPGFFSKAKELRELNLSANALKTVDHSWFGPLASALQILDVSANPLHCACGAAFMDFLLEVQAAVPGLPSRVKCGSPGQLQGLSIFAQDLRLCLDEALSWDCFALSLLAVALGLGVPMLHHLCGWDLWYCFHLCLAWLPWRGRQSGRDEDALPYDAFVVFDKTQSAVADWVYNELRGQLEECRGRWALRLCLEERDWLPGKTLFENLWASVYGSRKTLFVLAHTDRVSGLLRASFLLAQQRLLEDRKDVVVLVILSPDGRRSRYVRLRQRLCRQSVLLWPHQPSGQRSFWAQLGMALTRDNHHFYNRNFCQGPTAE
In words: TLR9 inhibition reporter assay (HEK-Blue cells, SEAP reporter, ODN2006 stimulation). Conditions: HEK-Blue cells overexpressing human TLR9, SEAP reporter, ODN2006 5 nM. Put shortly:
(§1)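 Agonists (final): TLR7 gardiquimod 7.5 μM; TLR8 R848 15.9 μM; TLR9 ODN2006 5 nM. HEK-Blue reporter cells, 30 min RT compound pre-incubation, 0.05 nM–50 μM dose range, 22 h at 37 °C, colorimetric SEAP detection medium. % inhibition relative to agonist+DMSO and known-inhibitor wells.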
A general note: A reporter such as luciferase makes a cellular process visible.

In a further assay the target is T2, human TLR8 (Homo sapiens, UniProt Q9NR97).
T2 construct: host or cells: HEK-Blue cells (HEK293-derived reporter line)
T2 sequence (Q9NR97 27-1041): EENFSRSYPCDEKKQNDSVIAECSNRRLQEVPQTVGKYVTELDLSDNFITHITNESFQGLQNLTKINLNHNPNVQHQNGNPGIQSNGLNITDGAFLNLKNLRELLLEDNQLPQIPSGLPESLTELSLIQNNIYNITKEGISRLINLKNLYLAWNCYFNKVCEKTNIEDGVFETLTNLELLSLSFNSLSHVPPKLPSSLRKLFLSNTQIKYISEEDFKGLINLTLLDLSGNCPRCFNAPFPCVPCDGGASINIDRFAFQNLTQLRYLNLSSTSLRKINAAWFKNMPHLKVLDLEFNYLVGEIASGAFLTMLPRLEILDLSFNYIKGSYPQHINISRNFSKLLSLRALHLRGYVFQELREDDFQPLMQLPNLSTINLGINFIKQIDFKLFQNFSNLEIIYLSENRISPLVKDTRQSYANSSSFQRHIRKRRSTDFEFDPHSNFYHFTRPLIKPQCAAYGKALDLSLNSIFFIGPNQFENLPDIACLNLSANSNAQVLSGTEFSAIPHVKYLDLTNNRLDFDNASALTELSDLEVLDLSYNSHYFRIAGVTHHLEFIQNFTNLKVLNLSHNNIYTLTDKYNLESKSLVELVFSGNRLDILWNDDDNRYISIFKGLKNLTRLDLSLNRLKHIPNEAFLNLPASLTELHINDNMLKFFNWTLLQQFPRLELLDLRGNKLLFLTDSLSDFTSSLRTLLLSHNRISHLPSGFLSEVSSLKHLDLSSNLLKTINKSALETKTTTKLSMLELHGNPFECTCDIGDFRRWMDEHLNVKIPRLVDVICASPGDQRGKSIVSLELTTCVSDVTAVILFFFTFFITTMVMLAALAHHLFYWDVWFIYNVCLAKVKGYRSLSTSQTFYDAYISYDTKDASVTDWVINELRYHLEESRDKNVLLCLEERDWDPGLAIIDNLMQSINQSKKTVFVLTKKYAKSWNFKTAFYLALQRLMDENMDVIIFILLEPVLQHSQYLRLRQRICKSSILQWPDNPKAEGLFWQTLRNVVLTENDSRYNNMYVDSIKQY
In words: TLR8 inhibition reporter assay (HEK-Blue cells, SEAP reporter, R848 stimulation). Conditions: HEK-Blue cells overexpressing human TLR8, SEAP reporter, R848 15.9 μM. A digest of the protocol: as §1

The target in the next assay is T3, human TLR7 (Homo sapiens, UniProt Q9NYK1).
T3 construct: host or cells: HEK-Blue cells (HEK293-derived reporter line)
T3 sequence (Q9NYK1 27-1049): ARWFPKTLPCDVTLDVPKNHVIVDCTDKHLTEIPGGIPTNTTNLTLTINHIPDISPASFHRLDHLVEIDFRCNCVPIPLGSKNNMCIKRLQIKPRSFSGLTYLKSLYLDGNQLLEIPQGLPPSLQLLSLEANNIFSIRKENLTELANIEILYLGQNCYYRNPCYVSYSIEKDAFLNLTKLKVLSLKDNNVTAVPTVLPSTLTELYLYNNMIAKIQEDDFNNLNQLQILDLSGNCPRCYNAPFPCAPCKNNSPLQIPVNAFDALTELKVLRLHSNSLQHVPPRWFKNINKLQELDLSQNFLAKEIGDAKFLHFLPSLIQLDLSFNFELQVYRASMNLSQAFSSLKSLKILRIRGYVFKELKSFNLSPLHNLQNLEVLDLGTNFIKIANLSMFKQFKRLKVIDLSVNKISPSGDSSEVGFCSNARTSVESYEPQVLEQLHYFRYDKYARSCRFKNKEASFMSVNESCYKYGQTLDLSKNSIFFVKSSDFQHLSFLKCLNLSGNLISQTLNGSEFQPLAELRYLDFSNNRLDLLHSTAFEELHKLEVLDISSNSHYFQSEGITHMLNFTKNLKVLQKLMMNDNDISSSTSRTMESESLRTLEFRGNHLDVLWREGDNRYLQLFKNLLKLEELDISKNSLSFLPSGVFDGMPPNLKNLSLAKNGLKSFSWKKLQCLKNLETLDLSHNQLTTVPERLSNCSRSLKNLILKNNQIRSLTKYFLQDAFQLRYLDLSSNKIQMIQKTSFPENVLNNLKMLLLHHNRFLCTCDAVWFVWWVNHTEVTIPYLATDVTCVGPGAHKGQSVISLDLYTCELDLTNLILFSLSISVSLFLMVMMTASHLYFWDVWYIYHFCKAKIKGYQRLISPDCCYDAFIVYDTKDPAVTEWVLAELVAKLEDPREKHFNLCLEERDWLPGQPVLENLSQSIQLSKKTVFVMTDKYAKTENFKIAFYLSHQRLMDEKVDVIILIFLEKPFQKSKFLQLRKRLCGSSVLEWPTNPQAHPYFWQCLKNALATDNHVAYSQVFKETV
In words: TLR7 inhibition reporter assay (HEK-Blue cells, SEAP reporter, gardiquimod stimulation). The note with it: HEK-Blue cells overexpressing human TLR7, SEAP reporter, gardiquimod 7.5 μM. A digest of the protocol:
as §1

What is called IC50 is the midpoint of a concentration-inhibition curve. A higher IC50 goes with a need for much substance. Take `Cc1c(-c2[nH]c3ccc(C4CCNCC4)cc3c2C(C)C)cn2ccnc2c1Cl` [Example 133, 8-chloro-6-(3-isopropyl-5-(piperidin-4-yl)-1H-indol-2-yl)-7-methylimidazo[1,2-a]pyridine]: the values for the 50% inhibitory concentration (IC50) against human TLR9, against human TLR8 and at human TLR7 were 1 to 50 µM, below 0.1 µM and below 0.1 µM, respectively.

Take `Cc1nnn2ccc(-c3[nH]c4ccc(C5CCN(CC(=O)N(C)C)CC5)cc4c3C(C)C)cc12` [Example 318, 2-(4-(3-isopropyl-2-(3-methyl-[1,2,3]triazolo[1,5-a]pyridin-5-yl)-1H-indol-5-yl)piperidin-1-yl)-N,N-dimethylacetamide]: the IC50 against human TLR9 was 1 to 50 µM; at human TLR8 it was below 0.1 µM; against human TLR7, below 0.1 µM.

As to `Cc1c(-c2ccnc3[nH]cc(C(C)C)c23)[nH]c2ccc(C3CCNCC3)cc12` [Example 214, 3-isopropyl-4-(3-methyl-5-(piperidin-4-yl)-1H-indol-2-yl)-1H-pyrrolo[2,3-b]pyridine], the IC50 against human TLR9 fell in the range of 0.1 to 1 µM; against human TLR8, 1 to 50 µM; against human TLR7, 1 to 50 µM.

On to `CC(C)c1c(-c2ccc3nccn3c2)[nH]c2ccc(C3CCN(C)CC3)cc12` [Example 947, 6-(3-isopropyl-5-(1-methylpiperidin-4-yl)-1H-indol-2-yl)imidazo[1,2-a]pyridine], for which the IC50 against human TLR9 was 0.1 to 1 µM; at human TLR8, below 0.1 µM; against human TLR7 it was below 0.1 µM.

`CCc1c[nH]c2nccc(-c3[nH]c4ccc(C5CCNCC5)cc4c3C)c12` [Example 219, 4-(3-methyl-5-(piperidin-4-yl)-1H-indol-2-yl)-3-ethyl-1H-pyrrolo[2,3-b]pyridine]: the IC50 at human TLR9, on human TLR8 and on human TLR7 was 0.1 to 1 µM throughout.

Take `CCc1c(-c2cnc3cc(C)cnn23)[nH]c2ccc(C3CCNCC3)cc12` [Example 108, 3-(3-ethyl-5-(piperidin-4-yl)-1H-indol-2-yl)-7-methylimidazo[1,2-b]pyridazine]: the IC50 at human TLR9 is 1 to 50 µM; against human TLR8, 1 to 50 µM; against human TLR7, above 50 µM.

Consider `Cc1c(-c2[nH]c3ccc(C4CCN(C5COC5)CC4)cc3c2C(C)C)nn2ncnc2c1C` [Example 730, 6-(3-isopropyl-5-(1-(oxetan-3-yl)piperidin-4-yl)-1H-indol-2-yl)-7,8-dimethyl-[1,2,4]triazolo[1,5-b]pyridazine], for which the IC50 is 1 to 50 µM on human TLR9, below 0.1 µM at human TLR8 and below 0.1 µM at human TLR7.

With `CC(C)c1c(-c2ccnc3[nH]ncc23)[nH]c2ccc(C3CCN(C(=O)CN4CC[C@@H](N(C)C)C4)CC3)cc12` [Example 582, (R)-2-(3-(dimethylamino)pyrrolidin-1-yl)-1-(4-(3-isopropyl-2-(1H-pyrazolo[3,4-b]pyridin-4-yl)-1H-indol-5-yl)piperidin-1-yl)ethan-1-one], the values for the IC50 against human TLR9, at human TLR8 and against human TLR7 were 0.1 to 1 µM, below 0.1 µM and below 0.1 µM, respectively.

Turning to `CNCCN1CCC(c2ccc3[nH]c(-c4cncc5ccccc45)c(C)c3c2)CC1` [Example 665, 2-(4-(2-(isoquinolin-4-yl)-3-methyl-1H-indol-5-yl)piperidin-1-yl)-N-methylethan-1-amine], the IC50 on human TLR9 is 0.1 to 1 µM; on human TLR8, above 3.13 µM; against human TLR7, above 50 µM.

In the case of `FC(F)Cc1c(-c2ccnc3[nH]ccc23)[nH]c2ccc(C3CCNCC3)cc12` [Example 205, 4-(3-(2,2-difluoroethyl)-5-(piperidin-4-yl)-1H-indol-2-yl)-1H-pyrrolo [2,3-b]pyridine], the IC50 against human TLR9 was 0.1 to 1 µM; on human TLR8 it was below 0.1 µM; against human TLR7, below 0.1 µM.

Take `CCc1c(-c2ccnc3[nH]ncc23)[nH]c2ccc(C3CCN(Cc4cnc[nH]4)CC3)cc12` [Example 863, 4-(5-(1-((1H-imidazol-5-yl)methyl)piperidin-4-yl)-3-ethyl-1H-indol-2-yl)-1H-pyrazolo[3,4-b]pyridine]: the figures for the IC50 against human TLR9, at human TLR8 and at human TLR7 were 0.1 to 1 µM, below 0.1 µM and 0.1 to 1 µM, respectively.

With `Cc1cn2cc(-c3[nH]c4ccc(C5CCN(C(=O)C[C@H](C)O)CC5)cc4c3CC(F)F)ccc2n1` [Example 608, (S)-1-(4-(3-(2,2-difluoroethyl)-2-(2-methylimidazo[1,2-a]pyridin-6-yl)-1H-indol-5-yl)piperidin-1-yl)-3-hydroxybutan-1-one], the IC50 against human TLR9 was 1 to 50 µM; against human TLR8, above 3.13 µM; against human TLR7, 0.1 to 1 µM.

Turning to `CC(C)c1c(-c2ccnc3[nH]ncc23)[nH]c2ccc(C3CCN(C(=O)CNCC(C)(C)C)CC3)cc12` [Example 589, 1-(4-(3-isopropyl-2-(1H-pyrazolo[3,4-b]pyridin-4-yl)-1H-indol-5-yl)piperidin-1-yl)-2-(neopentylamino)ethan-1-one], the IC50 is 1 to 50 µM at human TLR9, below 0.1 µM on human TLR8 and below 0.1 µM against human TLR7.

Source of the values: US11739098B2 (BRISTOL-MYERS SQUIBB COMPANY, priority 2017, dated 2023).
